Data published in patent publication US11180510B2, “Xanthine derivatives and uses thereof as inhibitors of bromodomains of BET proteins” (Centre national de la recherche scientifique, priority 2017, dated 2021).
“And” between values parts separate entries of the source, which are not always exact repeats. Equal entries are not always repeated.

target: T1, Brd4(BD2) (Homo sapiens, UniProt O60885); experiment: HTRF BET selectivity profile, Brd4(BD2); format: binding; conditions: not given
T1 construct: GST tagged bromodomain proteins were purchased from BPS Bioscience; purchased BPS Bioscience
Experimental: (§1) HTRF assays were performed in white 384 Well Small Volume™ HiBase Polystyrene Microplates (Greiner) with a total working volume of 20 μL. Compounds were dispensed, with 100 nL per well (0.5% final DMSO), from a concentration stock of 10 mM in 100% DMSO and with serial DMSO dilutions, using an Echo® 550 robot from the Access Labcyte platform (Labcyte) and based on the transfer of liquid by acoustic wave. Then, 19.5 μL of buffer is added, using a Multidrop Combi (Thermo Fisher Scientific). Finally, for each assay, 200 nL of master mix (protein+donor+acceptor) and 200 nL of peptide Is added in the assay wells according to the final concentration and buffer described in Table 3, using the Echo® 550 robot (Labcyte). The IC50 measurements were performed in triplicates (Table 2 and 3). All HTRF reagents (donor and acceptor) were purchased from CisBio Bioassays and reconstituted according to the supplier protocols. The peptide was purchased from Genic Bio Synthetic. The BRD4(1) protein was produced and purified in the laboratory. HTRF signals were measured, after a final incubation (3 h or 6 h or overnight at room temperature or 4° C., according to the bromodomain), using a PHERAstar FS (BMG Labtech) with an excitation filter at 337 nm and fluorescence wavelength measurement at 620 and 665 nm, an integration delay of 60 μs and an integration time of 500 μs. Results were analyzed with a two-wavelengths signal ratio: [intensity (665 nm)/intensity (620 nm)]*104.
(§2) Percentage of inhibition was calculated using the following equation: % inhibition=[(compound signal)−(min signal)]/[(max signal)−(min signal)]*100, where ‘max signal’ is the signal ratio with the compound vehicle alone (DMSO) and ‘min signal’ the signal ratio without peptide.
(§3) Selectivity profiles of bromodomain inhibitors were performed as described in HTRF screen section. […] HTRF detection reagents (EPIgeneous™ Binding Domain kits) were purchased from Cisbio Bioassays and used according to supplier's protocol. GST tagged bromodomain proteins were purchased from BPS Bioscience and histone peptide from Genic Bio Synthetic.

| SMILES | IC50 [µM] |
| --- | --- |
| CCn1cnc2c1c(=O)[nH]c(=O)n2Cc1ccc(CNS(=O)(=O)c2ccc3c(c2)CCC(=O)N3)cc1 [Compound 27b] | 8.31 |
| CCn1cnc2c1c(=O)[nH]c(=O)n2Cc1ccc(CNS(=O)(=O)c2ccc3c(c2)CCCC(=O)N3)c2ccccc12 [Compound 31c] | 4.21 |
| CCn1c(CSc2nc3nc(C)cc(C)n3n2)nc2c1c(=O)[nH]c(=O)n2Cc1ccc(CNS(=O)(=O)c2ccc3c(c2)CCCC(=O)N3)cc1 [Compound 32b] | 28 |
| CCn1cnc2c1c(=O)[nH]c(=O)n2Cc1ccc(CNS(=O)(=O)c2ccc(OC3CCCCC3)cc2)cc1 [Compound 43a] | 4.39 |

target: T2, Brd2(BD2) (Homo sapiens, UniProt P25440); experiment: HTRF BET selectivity profile, Brd2(BD2); format: binding; conditions: not given
T2 construct: GST tagged bromodomain proteins were purchased from BPS Bioscience; purchased BPS Bioscience
T2 sequence (P25440 344-453 limits assumed): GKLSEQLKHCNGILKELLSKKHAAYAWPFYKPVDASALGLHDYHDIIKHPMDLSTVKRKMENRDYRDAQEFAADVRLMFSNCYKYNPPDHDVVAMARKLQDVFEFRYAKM
Experimental: (§4) HTRF assays were performed in white 384 Well Small Volume™ HiBase Polystyrene Microplates (Greiner) with a total working volume of 20 μL. Compounds were dispensed, with 100 nL per well (0.5% final DMSO), from a concentration stock of 10 mM in 100% DMSO and with serial DMSO dilutions, using an Echo® 550 robot from the Access Labcyte platform (Labcyte) and based on the transfer of liquid by acoustic wave. Then, 19.5 μL of buffer is added, using a Multidrop Combi (Thermo Fisher Scientific). […] All HTRF reagents (donor and acceptor) were purchased from CisBio Bioassays and reconstituted according to the supplier protocols. The peptide was purchased from Genic Bio Synthetic. The BRD4(1) protein was produced and purified in the laboratory.
as §2, §3

| SMILES | IC50 [µM] |
| --- | --- |
| CCn1c(CSc2nc3nc(C)cc(C)n3n2)nc2c1c(=O)[nH]c(=O)n2Cc1ccc(CNS(=O)(=O)c2ccc3c(c2)CCCC(=O)N3)cc1 [Compound 32b] | 3.94 |

same assay, conditions: read-out: Brd2(BD2) IC50

| SMILES | IC50 [µM] |
| --- | --- |
| CCn1cnc2c1c(=O)[nH]c(=O)n2Cc1ccc(CNS(=O)(=O)c2ccc3c(c2)CCC(=O)N3)cc1 [Compound 27b] | 5.58 |
| CCn1cnc2c1c(=O)[nH]c(=O)n2Cc1ccc(CNS(=O)(=O)c2ccc3c(c2)CCCC(=O)N3)c2ccccc12 [Compound 31c] | 3.08 |
| CCn1cnc2c1c(=O)[nH]c(=O)n2Cc1ccc(CNS(=O)(=O)c2ccc(OC3CCCCC3)cc2)cc1 [Compound 43a] | 2.26 |

target: T3, Brd2(BD1) (Homo sapiens, UniProt P25440); experiment: HTRF BET selectivity profile, Brd2(BD1); format: binding; conditions: not given
T3 construct: GST tagged bromodomain proteins were purchased from BPS Bioscience; purchased BPS Bioscience
T3 sequence (P25440 74-180 limits assumed): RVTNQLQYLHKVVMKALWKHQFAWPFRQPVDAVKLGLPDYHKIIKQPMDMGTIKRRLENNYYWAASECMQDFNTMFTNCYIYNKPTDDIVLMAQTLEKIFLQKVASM
Experimental: as §4, §2, §3

| SMILES | IC50 [µM] |
| --- | --- |
| CCn1c(CSc2nc3nc(C)cc(C)n3n2)nc2c1c(=O)[nH]c(=O)n2Cc1ccc(CNS(=O)(=O)c2ccc3c(c2)CCCC(=O)N3)cc1 [Compound 32b] | 4.37 |

same assay, conditions: read-out: Brd2(BD1) IC50

| SMILES | IC50 [µM] |
| --- | --- |
| CCn1cnc2c1c(=O)[nH]c(=O)n2Cc1ccc(CNS(=O)(=O)c2ccc3c(c2)CCC(=O)N3)cc1 [Compound 27b] | 3.49 |
| CCn1cnc2c1c(=O)[nH]c(=O)n2Cc1ccc(CNS(=O)(=O)c2ccc3c(c2)CCCC(=O)N3)c2ccccc12 [Compound 31c] | 4.35 |
| CCn1cnc2c1c(=O)[nH]c(=O)n2Cc1ccc(CNS(=O)(=O)c2ccc(OC3CCCCC3)cc2)cc1 [Compound 43a] | 0.367 |

same assay, conditions: selectivity Brd2(BD1) vs Brd2(BD2), HTRF IC50

| SMILES | Ratio 2-1 vs 2-2 |
| --- | --- |
| CCn1cnc2c1c(=O)[nH]c(=O)n2Cc1ccc(CNS(=O)(=O)c2ccc3c(c2)CCC(=O)N3)cc1 [Compound 27b] | 2 |
| CCn1cnc2c1c(=O)[nH]c(=O)n2Cc1ccc(CNS(=O)(=O)c2ccc3c(c2)CCCC(=O)N3)c2ccccc12 [Compound 31c] | 0.7 |
| CCn1c(CSc2nc3nc(C)cc(C)n3n2)nc2c1c(=O)[nH]c(=O)n2Cc1ccc(CNS(=O)(=O)c2ccc3c(c2)CCCC(=O)N3)cc1 [Compound 32b] | 0.9 |
| CCn1cnc2c1c(=O)[nH]c(=O)n2Cc1ccc(CNS(=O)(=O)c2ccc(OC3CCCCC3)cc2)cc1 [Compound 43a] | >6 |

target: T4, Brd3(BD2) (Homo sapiens, UniProt Q15059); experiment: HTRF BET selectivity profile, Brd3(BD2); format: binding; conditions: not given
T4 construct: GST tagged bromodomain proteins were purchased from BPS Bioscience; purchased BPS Bioscience
T4 sequence (Q15059 306-415 limits assumed): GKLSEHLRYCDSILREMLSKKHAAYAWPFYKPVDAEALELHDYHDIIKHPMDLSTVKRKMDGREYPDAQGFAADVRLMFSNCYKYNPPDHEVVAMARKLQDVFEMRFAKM
Experimental: as §1, §2, §3

| SMILES | IC50 [µM] |
| --- | --- |
| CCn1cnc2c1c(=O)[nH]c(=O)n2Cc1ccc(CNS(=O)(=O)c2ccc3c(c2)CCC(=O)N3)cc1 [Compound 27b] | 3.03 |
| CCn1cnc2c1c(=O)[nH]c(=O)n2Cc1ccc(CNS(=O)(=O)c2ccc3c(c2)CCCC(=O)N3)c2ccccc12 [Compound 31c] | 2.13 |
| CCn1c(CSc2nc3nc(C)cc(C)n3n2)nc2c1c(=O)[nH]c(=O)n2Cc1ccc(CNS(=O)(=O)c2ccc3c(c2)CCCC(=O)N3)cc1 [Compound 32b] | 7.27 |
| CCn1cnc2c1c(=O)[nH]c(=O)n2Cc1ccc(CNS(=O)(=O)c2ccc(OC3CCCCC3)cc2)cc1 [Compound 43a] | 2.44 |

target: BRD4(BD1) (Homo sapiens, UniProt O60885); experiment: HTRF assay, BRD4(BD1)/histone peptide interaction; format: binding; parameters: made in house; conditions: HTRF; mean of three experiments; NA = IC50 > 50 μM; read-out: Brd4(8D1) IC50
Experimental: as §4, §2, §3

| SMILES | IC50 [µM] |
| --- | --- |
| CCn1cnc2c1c(=O)[nH]c(=O)n2Cc1ccc(CNS(=O)(=O)c2ccc3c(c2)CCC(=O)N3)cc1 [Compound 27b] | 0.766 |
| CCn1cnc2c1c(=O)[nH]c(=O)n2Cc1ccc(CNS(=O)(=O)c2ccc3c(c2)CCCC(=O)N3)c2ccccc12 [Compound 31c] | 3.46 |
| CCn1c(CSc2nc3nc(C)cc(C)n3n2)nc2c1c(=O)[nH]c(=O)n2Cc1ccc(CNS(=O)(=O)c2ccc3c(c2)CCCC(=O)N3)cc1 [Compound 32b] | 0.984 |
| CCn1cnc2c1c(=O)[nH]c(=O)n2Cc1ccc(CNS(=O)(=O)c2ccc(OC3CCCCC3)cc2)cc1 [Compound 43a] | 0.202 |

same assay, conditions: HTRF; triplicates; NA = IC50 > maximal concentration of compound used

| SMILES | IC50 |
| --- | --- |
| CCn1cnc2c1c(=O)[nH]c(=O)n2Cc1ccc(CNS(=O)(=O)c2ccc3c(c2)CCC(=O)N3)cc1 [Compound 27b] | 0.766 µM |
| CCn1cnc2c1c(=O)[nH]c(=O)n2Cc1ccc(CNS(=O)(=O)c2ccc3c(c2)CCCC(=O)N3)c2ccccc12 [Compound 31c] | 3.5 µM |
| CCn1c(CSc2nc3nc(C)cc(C)n3n2)nc2c1c(=O)[nH]c(=O)n2Cc1ccc(CNS(=O)(=O)c2ccc3c(c2)CCCC(=O)N3)cc1 [Compound 32b] | 0.964 µM and 2.7 µM |
| CCn1cnc2c1c(=O)[nH]c(=O)n2Cc1ccc(CNC(=O)[C@@H](N)CC2CC2)cc1 [Compound 41b] | > 50 µM |
| CCn1cnc2c1c(=O)[nH]c(=O)n2Cc1ccc(CNC(=O)[C@@H]2CCCNC2)cc1 [Compound 41c] | > 50 µM |
| CCC[C@H](N)C(=O)NCc1ccc(Cn2c(=O)[nH]c(=O)c3c2ncn3CC)cc1 [Compound 42a] | > 50 µM |
| CCn1cnc2c1c(=O)[nH]c(=O)n2Cc1ccc(CNC(=O)C2CCCC(N)C2)cc1 (stereo not drawn) [Compound 42b] | 32 µM |
| CCn1cnc2c1c(=O)[nH]c(=O)n2Cc1ccc(CNS(=O)(=O)c2ccc(OC3CCCCC3)cc2)cc1 [Compound 43a] | 0.202 µM |

same assay, conditions: selectivity Brd4(BD1) vs Brd4(BD2), HTRF IC50

| SMILES | Ratio 4-1 vs 4-2 |
| --- | --- |
| CCn1cnc2c1c(=O)[nH]c(=O)n2Cc1ccc(CNS(=O)(=O)c2ccc3c(c2)CCC(=O)N3)cc1 [Compound 27b] | 11 |
| CCn1cnc2c1c(=O)[nH]c(=O)n2Cc1ccc(CNS(=O)(=O)c2ccc3c(c2)CCCC(=O)N3)c2ccccc12 [Compound 31c] | 1 |
| CCn1c(CSc2nc3nc(C)cc(C)n3n2)nc2c1c(=O)[nH]c(=O)n2Cc1ccc(CNS(=O)(=O)c2ccc3c(c2)CCCC(=O)N3)cc1 [Compound 32b] | 29 |
| CCn1cnc2c1c(=O)[nH]c(=O)n2Cc1ccc(CNS(=O)(=O)c2ccc(OC3CCCCC3)cc2)cc1 [Compound 43a] | 22 |

target: T5, Brdt(BD1) (Homo sapiens, UniProt Q58F21); experiment: HTRF BET selectivity profile, Brdt(BD1); format: binding; conditions: not given
T5 construct: GST tagged bromodomain proteins were purchased from BPS Bioscience; purchased BPS Bioscience
Experimental: as §1, §2, §3

| SMILES | IC50 [µM] |
| --- | --- |
| CCn1cnc2c1c(=O)[nH]c(=O)n2Cc1ccc(CNS(=O)(=O)c2ccc3c(c2)CCC(=O)N3)cc1 [Compound 27b] | 2.15 |
| CCn1cnc2c1c(=O)[nH]c(=O)n2Cc1ccc(CNS(=O)(=O)c2ccc3c(c2)CCCC(=O)N3)c2ccccc12 [Compound 31c] | 3.36 |
| CCn1c(CSc2nc3nc(C)cc(C)n3n2)nc2c1c(=O)[nH]c(=O)n2Cc1ccc(CNS(=O)(=O)c2ccc3c(c2)CCCC(=O)N3)cc1 [Compound 32b] | 9.54 |
| CCn1cnc2c1c(=O)[nH]c(=O)n2Cc1ccc(CNS(=O)(=O)c2ccc(OC3CCCCC3)cc2)cc1 [Compound 43a] | 0.474 |

target: Brd3(BD1) (Homo sapiens, UniProt Q15059); experiment: HTRF BET selectivity profile, Brd3(BD1); format: binding; parameters: GST tagged bromodomain proteins were purchased from BPS Bioscience; purchased BPS Bioscience; conditions: not given
Sequence (Q15059 34-140 limits assumed): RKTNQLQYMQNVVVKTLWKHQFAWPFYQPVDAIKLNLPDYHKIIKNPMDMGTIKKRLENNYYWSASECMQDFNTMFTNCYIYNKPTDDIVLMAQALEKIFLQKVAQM
Experimental: as §4, §2, §3

| SMILES | IC50 [µM] |
| --- | --- |
| CCn1cnc2c1c(=O)[nH]c(=O)n2Cc1ccc(CNS(=O)(=O)c2ccc3c(c2)CCC(=O)N3)cc1 [Compound 27b] | 0.94 |
| CCn1cnc2c1c(=O)[nH]c(=O)n2Cc1ccc(CNS(=O)(=O)c2ccc3c(c2)CCCC(=O)N3)c2ccccc12 [Compound 31c] | 5.71 |
| CCn1c(CSc2nc3nc(C)cc(C)n3n2)nc2c1c(=O)[nH]c(=O)n2Cc1ccc(CNS(=O)(=O)c2ccc3c(c2)CCCC(=O)N3)cc1 [Compound 32b] | 9.6 |
| CCn1cnc2c1c(=O)[nH]c(=O)n2Cc1ccc(CNS(=O)(=O)c2ccc(OC3CCCCC3)cc2)cc1 [Compound 43a] | 0.258 |

same assay, conditions: selectivity Brd3(BD1) vs Brd3(BD2), HTRF IC50

| SMILES | Ratio 3-1 vs 3-2 |
| --- | --- |
| CCn1cnc2c1c(=O)[nH]c(=O)n2Cc1ccc(CNS(=O)(=O)c2ccc3c(c2)CCC(=O)N3)cc1 [Compound 27b] | 3 |
| CCn1cnc2c1c(=O)[nH]c(=O)n2Cc1ccc(CNS(=O)(=O)c2ccc3c(c2)CCCC(=O)N3)c2ccccc12 [Compound 31c] | 0.4 |
| CCn1c(CSc2nc3nc(C)cc(C)n3n2)nc2c1c(=O)[nH]c(=O)n2Cc1ccc(CNS(=O)(=O)c2ccc3c(c2)CCCC(=O)N3)cc1 [Compound 32b] | 0.8 |
| CCn1cnc2c1c(=O)[nH]c(=O)n2Cc1ccc(CNS(=O)(=O)c2ccc(OC3CCCCC3)cc2)cc1 [Compound 43a] | 10 |
